These are literature values, as cited in US7473804B2, “Polymorphs of atomoxetine hydrochloride” (Teva Pharmaceutical Fine Chemicals s.r.l., priority 2004, dated 2009).

The conditions of the data set: as disclosed in U.S. Pat. No. 4,018,895, EP 0 052 492, EP 0 721 777.

Turning to `CNCC[C@@H](Oc1ccccc1C)c1ccccc1` [Atomoxetine, (R)(−)-N-methyl-3-(2-methylphenoxy)-3-phenylpropylamine], the “effectiveness relative to the (+)-enantiomer” value is “about nine times more effective than the (+)-enantiomer” and the “effectiveness relative to the racemic mixture (tomoxetine)” value is given as “about twice as effective as the racemic mixture”.
